Drawing on US5607914A, “Synthetic antimicrobial peptides” (Pioneer Hi-Bred International, Inc., priority 1994, dated 1997), this text covers MCIC and MIC for five substances.

In one assay the test system is A. flavus. The experiment in a line: Antifungal activity of synthetic peptides (MIC/MCIC). The assay is classed as cell-based.
Another assay relates to F. moniliforme. Described as above. In kind it is cell-based.
The test system of another assay is F. graminearum. The assay is classed as cell-based.

Where two headings read alike, the source gives them in different places. No end group written: not given here. Some results are limits rather than exact numbers.

In the case of “Cecropin A (KWKLFKKIEKVGQNIRDGIIKAGPAVAVVGQATQIAK; ends and bridges not checked; UniProt P01507 27-63, looked up)”, the MCIC in the assay on A. flavus is > 80; in the assay on F. moniliforme, > 80; in the assay on F. graminearum (F. graminearum, score of 3 or greater (≥80% growth inhibition)), > 80 µg/mL. The MIC in the assay on A. flavus is 80 µg/mL; with F. moniliforme, 80 µg/mL; in the assay with F. graminearum (F. graminearum, score of 1 or greater (25% growth inhibition)), 60 µg/mL.

Turning to Mastoparan, the MIC stood at 20 µg/mL against A. flavus (A. flavus, concentration achieving a score of 1 or greater (25% growth inhibition)); 2.5 µg/mL against F. moniliforme (F. moniliforme, score of 1 or greater (25% growth inhibition)); 5 µg/mL in the assay with F. graminearum. Also, the MCIC was determined as 40 µg/mL in the assay on A. flavus (A. flavus, concentration achieving a score of 3 or greater (≥80% growth inhibition)); 10 µg/mL in the assay with F. moniliforme (F. moniliforme, score of 3 or greater (≥80% growth inhibition)); 10 in the assay with F. graminearum.

As to KLKKALRWLARHAK [Peptide 20], the MIC against E. coli, in the assay with C. nebraskense and in the assay with A. tumefaciens was 3.13 μg per ml each time.

As to KWKKALRALARHLK [Peptide 19], the MIC was determined as 6.25 μg per ml against E. coli, 3.13 μg per ml with C. nebraskense and 6.25 μg per ml against A. tumefaciens.

For RRIYRAIRHIPRRIR [Peptide 22], the MIC stood at 3.13 μg per ml with E. coli (E. coli) and 12.5 μg per ml in the assay with C. nebraskense (C. nebraskense).
